Measured values as given in PMC7692337, “Masked Phenolic-Selenium Conjugates: Potent and Selective Antiproliferative Agents Overcoming P-gp Resistance” (Pharmaceuticals, 2020).
Entries after “also recorded” stand apart in the source; their conditions may differ. Where two headings read alike, the source gives them in different places.

How the values were obtained:
[1] = Free radical scavenging (DPPH method); details: 30 min incubation, absorbance at 515 nm, read-out: EC50 antiradical activity (DPPH)
Experimental: (§1) In vitro antioxidant properties of key unprotected phenolic derivatives were analyzed using two different methodologies: free radical scavenging capacity, using the DPPH method (2,2-diphenyl-1-picrylhydrazyl), a HAT (hydrogen atom transfer) procedure, widely-used for both natural and synthetic derivatives, and also the capacity for scavenging H2O2, one of the most common ROS in degenerative diseases, including cancer.
DPPH is a commercially-available stable free radical commonly used for in vitro testing of radical scavenging properties of antioxidants.
Reported methodology was used with minor modifications. To a 60 µM methanolic DPPH solution (1.17 mL), the antioxidant solution (5–7 different solutions, 30 µL) or solvent (control, 30 µL) were added. After 30 min. of incubation in the dark, absorbance was measured at 515 nm, and EC50 values were calculated.

[2] = H2O2 scavenging (phenol red / horseradish peroxidase); details: At 50 µM
Experimental: as §1
Herein, following Bahorun’s methodology, in vitro levels of H2O2 were measured in an indirect fashion, by registering the H2O2-mediated oxidation of phenol red in the presence of horseradish peroxidase, to give a chromophore with a maximum absorption at 610 nm. Accordingly, in the presence of an antioxidant agent, there is an inverse correlation between the observed absorbance, and the scavenging properties. Table 2 depicts the H2O2-scavenging properties of compounds prepared herein, and tested at a final 50 µM concentration.
Reported methodology was used with minor modifications.

[3] = test system: A549 (non-small cell lung); experiment: Antiproliferative activity, NCI protocol; format: cell-based, human
Experimental: (§2) Organochalcogen derivatives prepared herein were evaluated in vitro as potential antiproliferative agents, using a panel of six human tumour cell lines: A549 (non-small cell lung), HBL-100 (breast), HeLa (cervix), SW1573 (non-small cell lung), as drug sensitive lines, T-47D (breast) and WiDr (colon) as drug resistant lines. In addition to precursors 2, 6, 7, 13, 14, 17, 19, ebselen and cisplatin (CDDP) were used as reference drugs. […] In both cases, the NCI protocol, with minor modifications, was followed; selected data, including the selectivity index (S.I.) can be found in Table 3 and full data in Supporting Information (Table S1).
(§3) The in vitro antiproliferative activity was assayed using minor modifications of the protocol of the National Cancer Institute (NCI) of the United States against the six human solid tumor cell and the non-tumor cell lines tested.

HBL-100 (breast) = experiment: Antiproliferative activity, NCI protocol; format: cell-based, human
Experimental: as §2, §3

HeLa (cervix) = experiment: Antiproliferative activity, NCI protocol; format: cell-based, human
Experimental: as §2, §3

[4] = test system: SW1573 (non-small cell lung); experiment: Antiproliferative activity, NCI protocol; format: cell-based, human
Experimental: as §2, §3

T-47D (breast) = experiment: Antiproliferative activity, NCI protocol; format: cell-based, human; details: for GI50: read-out: GI50 T-47D (Breast)
Experimental: as §2, §3

WiDr (colon) = experiment: Antiproliferative activity, NCI protocol; format: cell-based, human; details: for GI50: read-out: GI50 WiDr (Colon)
Experimental: as §2, §3

[5] = test system: six human tumour cell lines (A549, HBL-100, HeLa, SW1573, T-47D, WiDr); experiment: Antiproliferative activity, panel of six human tumour cell lines; format: cell-based; details: summary over the tested tumour cell lines; highest tested concentration 100 µM
Experimental: as §2, §3

BJ-hTert (fibroblasts) = experiment: Antiproliferative activity on non-tumour cells, NCI protocol; format: cell-based, human; details: non-tumour cell line; for GI50: read-out: GI50 BJ-hTert (Fibroblasts)
Experimental: as §2, §3

SW1573 = experiment: P-glycoprotein assay, wild type line; format: cell-based; details: Homo sapiens, 48 h exposure
Experimental: (§4) This assay allows prediction of whether a certain chemotherapeutic agent could develop chemoresistance when behaving as a P-gp substrate, one of the most common efllux-pumps used for the extrusion of cell xenobiotics. For that purpose, a cell line-based assay was used, in particular the lung cancer cell line in its wild type (SW1573), and its variant overexpressing P-gp (Sw1573/Pgp). Moreover, compounds were tested in the presence and in the absence of verapamil, which is known to inhibit P-gp. Chemotherapeutic agents paclitaxel (PTX) and vinblastine (VB) are used herein as reference compounds. In this assay, the resistance factor (Rf) for a certain compound is defined as the ratio of GI50 in the cell line overexpressing P-gp and the wild one (Table 4), high values of Rf denoting that the compound behaves as a P-gp substrate, and thus, chemoresistance through this mechanism will probably take place.

[6] = P-glycoprotein assay, line overexpressing P-gp; format: cell-based, human; details: human, 48 h exposure
Experimental: as §4

SW1573/Pgp = experiment: P-glycoprotein assay, line overexpressing P-gp; format: cell-based, human; details: ratio between GI50 values in SW1573/PGP and SW1573 cells; for Rf w Verapamil: with verapamil; for Rf w/o Verapamil: without verapamil
Experimental: as §4

[7] = Homo sapiens, A549; read-out: GI50 A549 (Lung)
[8] = Homo sapiens, HBL-100; read-out: GI50 HBL-100 (Breast)
[9] = Homo sapiens, HeLa; read-out: GI50 HeLa (Cervix)
[10] = Homo sapiens, SW1573, Table S1, read-out: GI50 SW1573 (Lung)
[11] = Homo sapiens, T47D, drug resistant line
[12] = Homo sapiens, WiDr, drug resistant line
[13] = with verapamil, read-out: GI50 SW153 w Verapamil
[14] = without verapamil, read-out: GI50 SW1573 w/o Verapamil
[15] = with verapamil (concentration not stated), with verapamil, read-out: GI50 SW1573/PGP w Verapamil
[16] = without verapamil, read-out: GI50 SW1573/PGP w/o Verapamil
[17] = read-out: GI50 HBL-100 (Breast)
[18] = Table S1, read-out: GI50 SW1573 (Lung)

Row | Molecule | EC50 [1] [µM] | % Scavenging of H2O2 [2] | GI50 over the tumour cell lines (range, bound or words) [5] | GI50 [3, 7] [µM] | GI50 (HBL-100 (breast); [8]) [µM] | GI50 (HeLa (cervix); [9]) [µM] | GI50 [4, 10] [µM] | GI50 (T-47D (breast); [11]) [µM] | GI50 (WiDr (colon); [12]) [µM] | other results
1 | N#C[Se]CCC(=O)NCCc1ccc(O)c(O)c1 [Compound 20, N-[2′-(3′’,4′’-Dihydroxyphenyl)ethyl]-3-selenocyanatopropanamide] | 10.8 ± 0.4 | 25.8 ± 1.0% | moderate antiproliferative properties | – | – | – | – | – | – | GI50 ([3]; Homo sapiens, A549, read-out: GI50 A549 (Lung)): 28 ± 8 µM; GI50 (HBL-100 (breast); Homo sapiens, HBL-100, read-out: GI50 HBL-100 (Breast)): 37 ± 2 µM; GI50 (HeLa (cervix); Homo sapiens, HeLa, read-out: GI50 HeLa (Cervix)): 19 ± 8 µM; GI50 ([4]; Homo sapiens, SW1573, read-out: GI50 SW1573 (Lung)): 24 ± 8 µM; GI50 (T-47D (breast); Homo sapiens, T47D): 35 ± 1 µM; GI50 (WiDr (colon); Homo sapiens, WiDr): 41 ± 10 µM
2 | N#C[Se]CCc1ccc2c(c1)OCO2 [Compound 36, 2-(3′,4′-Methylendioxyphenyl)ethyl selenocyanate] | – | – | low micromolar‒submicromolar activities | 1.8 ± 0.7 | 2.1 ± 0.2 | 1.2 ± 0.2 | 3.8 ± 0.1 | 1.1 ± 0.3 | 1.3 ± 0.6 | GI50 (BJ-hTert (fibroblasts); Homo sapiens, Fibroblast): 14 ± 2 µM; GI50 (SW1573; [13]): 3.1 ± 0.4 µM; GI50 (SW1573; [14]): 4.2 ± 0.7 µM; GI50 at 48 h [6, 15]: 5.3 ± 0.6 µM; GI50 at 48 h [6, 16]: 6.8 ± 0.4 µM; Rf w Verapamil (SW1573/Pgp): 1.7; Rf w/o Verapamil (SW1573/Pgp): 1.6
3 | N#C[Se]CCCc1ccc2c(c1)OCO2 [Compound 37, 3-(3’,4’-Methylenedioxyphenyl)propyl selenocyanate] | – | – | – | – | – | – | – | – | – | GI50 A549 (Lung) [3]: Not soluble; GI50 HBL-100 (Breast) (HBL-100 (breast)): Not soluble; GI50 HeLa (Cervix) (HeLa (cervix)): Not soluble; GI50 T-47D (Breast) (T-47D (breast); drug resistant line): Not soluble; GI50 WiDr (Colon) (WiDr (colon); drug resistant line): Not soluble; GI50 BJ-hTert (Fibroblasts) (BJ-hTert (fibroblasts)): Not soluble
4 | N#C[Se]Cc1ccc2c(c1)OCO2 [Compound 35, (3′,4′-Methylenedioxyphenyl)methyl selenocyanate] | – | – | low micromolar‒submicromolar activities | 3.1 ± 0.7 | 3.5 ± 1.4 | 3.5 ± 0.8 | 4.4 ± 0.5 | 3.4 ± 0.2 | 2 ± 0.1 | GI50 (BJ-hTert (fibroblasts); Homo sapiens, Fibroblast): 8.7 ± 3.2 µM; GI50 (SW1573; [13]): 3.1 ± 1 µM; GI50 (SW1573; [14]): 2.3 ± 0.5 µM; GI50 at 48 h [6, 15]: 7 ± 0.6 µM; GI50 at 48 h [6, 16]: 7.1 ± 0.6 µM; Rf w Verapamil (SW1573/Pgp): 2.3; Rf w/o Verapamil (SW1573/Pgp): 3.1
5 | O=C1CCCSSCCCC(=O)Oc2cc(CCO)ccc2O1 [Compound 4, [4”-(2”‘-Hydroxyethyl)-1”,2”-phenylene]-4,4’-dithiobisbutyrate] | > 175 | complete loss of ROS scavenging properties; also recorded: --- ^2 | – | > 100 | > 100 | > 100 | > 100 | > 100 | > 100 | –
6 | O=C(CCCSSCCCC(=O)NCCc1ccc(O)c(O)c1)NCCc1ccc(O)c(O)c1 [Compound 10] | 15.3 ± 0.1 | 11.8 ± 0.5% | negligible activities | > 100 | > 100 | > 100 | > 100 | > 100 | > 100 | –
7 | NCCc1ccc(O)c(O)c1 [Dopamine, dopamine, reference compound] | 11.4 ± 1.2 | 46.1 ± 4.6% | – | – | – | – | – | – | – | –
8 | O=C(CC[Se][Se]CCC(=O)NCCc1ccc(O)c(O)c1)NCCc1ccc(O)c(O)c1 [Compound 15, 3,3′-Diselenobis{N-[2′’-(3′’’,4′’’-dihydroxyphenyl)ethyl]propanamide}] | 7.8 ± 0.2 | 40.0 ± 3.1% | – | 5.4 ± 1.1 | 29 ± 6 | 3.6 ± 1.1 | 5.9 ± 1.3 | 39 ± 5 | 31 ± 7 | GI50 (SW1573; [13]): 5 ± 0.7 µM; GI50 (SW1573; [14]): 3.3 ± 0.4 µM; GI50 at 48 h [6, 15]: 5.3 ± 0.3 µM; GI50 at 48 h [6, 16]: 5 ± 0.1 µM; Rf w Verapamil (SW1573/Pgp): 1.1; Rf w/o Verapamil (SW1573/Pgp): 1.5
9 | [NH2][Pt]([NH2])([Cl])[Cl] [CDDP, cisplatin, reference compound] | – | – | – | – | – | – | – | – | – | GI50 ([3]; read-out: GI50 A549 (Lung)): 4.9 ± 0.2 µM; GI50 (HBL-100 (breast); [17]): 1.9 ± 0.2 µM; GI50 (HeLa (cervix); read-out: GI50 HeLa (Cervix)): 2 ± 0.3 µM; GI50 [4, 18]: 3.4 ± 0.7 µM; GI50 (T-47D (breast); drug resistant line): 15 ± 2 µM; GI50 (WiDr (colon); drug resistant line): 26 ± 6 µM; GI50 (BJ-hTert (fibroblasts)): 14 ± 2 µM
10 | N-[2′-(3′’,4′’-Dihydroxyphenyl)ethyl]-3-phenylselenopropanamide [Compound 18] | 23.2 ± 0.6 | 19.0 ± 0.8% | moderate antiproliferative properties | – | – | – | – | – | – | GI50 ([3]; read-out: GI50 A549 (Lung)): 33 ± 5 µM; GI50 (HBL-100 (breast); [17]): 34 ± 1 µM; GI50 (HeLa (cervix); read-out: GI50 HeLa (Cervix)): 23 ± 1 µM; GI50 [4, 18]: 28 ± 4 µM; GI50 (T-47D (breast); drug resistant line): 71 ± 5 µM; GI50 (WiDr (colon); drug resistant line): 85 ± 21 µM
11 | O=C(CSSCC(=O)NCCc1ccc(O)c(O)c1)NCCc1ccc(O)c(O)c1 [Compound 8, 2,2′-Dithiobis{N-[2′’-(3′’’,4′’’-dihydroxyphenyl)ethyl]acetamide}] | 12.3 ± 0.5 | 26.5 ± 2.1% | negligible activities | > 100 | > 100 | > 100 | > 100 | > 100 | > 100 | –
